Laboratory results: PubChem BioAssay (NCI)
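Compound exposure: 48 hours, 5 concentrations, 96-well plates. TGI denotes the concentration required for complete inhibition of growth.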

Assays:
Experiment in all cases: NCI tumour cell line growth inhibition, 48 h
786-0 renal = system: 786-0 renal
A498 renal = system: A498 renal
A549 NSCLC = system: A549 NSCLC
ACHN renal = system: ACHN renal
CAKI-1 renal = system: CAKI-1 renal
CCRF-CEM leukemia = system: CCRF-CEM leukemia
COLO 205 colon = system: COLO 205 colon
DU-145 prostate = system: DU-145 prostate
EKVX NSCLC = system: EKVX NSCLC
HCC-2998 colon = system: HCC-2998 colon
HCT-116 colon = system: HCT-116 colon
HCT-15 colon = system: HCT-15 colon
HL-60(TB) leukemia = system: HL-60(TB) leukemia
HOP-62 NSCLC = system: HOP-62 NSCLC
HOP-92 NSCLC = system: HOP-92 NSCLC
HS 578T breast = system: HS 578T breast
HT29 colon = system: HT29 colon
IGROV1 ovarian = system: IGROV1 ovarian
K-562 leukemia = system: K-562 leukemia
KM12 colon = system: KM12 colon
LOX IMVI melanoma = system: LOX IMVI melanoma
M14 melanoma = system: M14 melanoma
MALME-3M melanoma = system: MALME-3M melanoma
MCF7 breast = system: MCF7 breast
MDA-MB-231 breast = system: MDA-MB-231 breast
MDA-MB-435 = system: MDA-MB-435
MDA-N = system: MDA-N
MOLT-4 leukemia = system: MOLT-4 leukemia
NCI-H226 lung = system: NCI-H226 lung
NCI-H23 lung = system: NCI-H23 lung
NCI-H460 lung = system: NCI-H460 lung
NCI-H522 lung = system: NCI-H522 lung
NCI/ADR-RES ovarian = system: NCI/ADR-RES ovarian
OVCAR-3 ovarian = system: OVCAR-3 ovarian
OVCAR-4 ovarian = system: OVCAR-4 ovarian
OVCAR-5 ovarian = system: OVCAR-5 ovarian
OVCAR-8 ovarian = system: OVCAR-8 ovarian
PC-3 prostate = system: PC-3 prostate
RPMI-8226 leukemia = system: RPMI-8226 leukemia
RXF 393 renal = system: RXF 393 renal
SF-268 CNS = system: SF-268 CNS
SF-295 CNS = system: SF-295 CNS
SF-539 CNS = system: SF-539 CNS
SK-MEL-2 melanoma = system: SK-MEL-2 melanoma
SK-MEL-28 melanoma = system: SK-MEL-28 melanoma
SK-MEL-5 melanoma = system: SK-MEL-5 melanoma
SK-OV-3 ovarian = system: SK-OV-3 ovarian
SN12C renal = system: SN12C renal
SNB-19 CNS = system: SNB-19 CNS
SNB-75 CNS = system: SNB-75 CNS
SR leukemia = system: SR leukemia
SW-620 colon = system: SW-620 colon
T-47D breast = system: T-47D breast
TK-10 renal = system: TK-10 renal
U251 CNS = system: U251 CNS
UACC-257 melanoma = system: UACC-257 melanoma
UACC-62 melanoma = system: UACC-62 melanoma
UO-31 renal = system: UO-31 renal
BT-549 breast = system: BT-549 breast

Work on `CCC(NC(C)c1ccccc1)C(O)c1ccc(OCc2ccccc2)c(OCc2ccccc2)c1` (stereo not drawn) yielded a TGI (786-0 renal) of 27.1 µM, a TGI (A498 renal) of 39.1 µM and a TGI (A549 NSCLC) of 29.8 µM. It also gave a TGI (ACHN renal) of 32.2 µM, a TGI (CAKI-1 renal) of 24.4 µM and a TGI (CCRF-CEM leukemia) of 38.7 µM. It also gave a TGI (COLO 205 colon) of 3.88 µM, a TGI (DU-145 prostate) of 32.1 µM and a TGI (EKVX NSCLC) of 31.2 µM. The TGI (HCC-2998 colon) was 6.49 µM, the TGI (HCT-116 colon) was 27.7 µM and the TGI (HCT-15 colon) was 29.9 µM. The TGI (HL-60(TB) leukemia) was 30.2 µM, the TGI (HOP-62 NSCLC) was 32.2 µM and the TGI (HOP-92 NSCLC) was 16.7 µM. The TGI (HS 578T breast) was 46.9 µM, the TGI (HT29 colon) was 13 µM and the TGI (IGROV1 ovarian) was 33.9 µM. It also gave a TGI (K-562 leukemia) of 9.44 µM, a TGI (KM12 colon) of 18 µM and a TGI (LOX IMVI melanoma) of 26.3 µM. The TGI (M14 melanoma) was 16.3 µM, the TGI (MALME-3M melanoma) was 28.9 µM and the TGI (MCF7 breast) was 31.1 µM. The TGI (MDA-MB-231 breast) was 21.2 µM, the TGI (MDA-MB-435) was 26.7 µM and the TGI (MDA-N) was 30.3 µM. It also gave a TGI (MOLT-4 leukemia) of 33.4 µM, a TGI (NCI-H226 lung) of 36.3 µM and a TGI (NCI-H23 lung) of 31.6 µM. It also gave a TGI (NCI-H460 lung) of 32.1 µM, a TGI (NCI-H522 lung) of 35.1 µM and a TGI (NCI/ADR-RES ovarian) of 30.6 µM. For the same molecule, the TGI (OVCAR-3 ovarian) was 25.6 µM, the TGI (OVCAR-4 ovarian) was 33.5 µM and the TGI (OVCAR-5 ovarian) was 26.3 µM. It also gave a TGI (OVCAR-8 ovarian) of 30.1 µM, a TGI (PC-3 prostate) of 27.4 µM and a TGI (RPMI-8226 leukemia) of 10.7 µM. For the same molecule, the TGI (RXF 393 renal) was 23 µM, the TGI (SF-268 CNS) was 36.4 µM and the TGI (SF-295 CNS) was 35.4 µM. For the same molecule, the TGI (SF-539 CNS) was 32.8 µM, the TGI (SK-MEL-2 melanoma) was 29.1 µM and the TGI (SK-MEL-28 melanoma) was 36 µM. For the same molecule, the TGI (SK-MEL-5 melanoma) was 14.4 µM, the TGI (SK-OV-3 ovarian) was 32.4 µM and the TGI (SN12C renal) was 29.5 µM. The TGI (SNB-19 CNS) was 28.6 µM, the TGI (SNB-75 CNS) was 23.2 µM and the TGI (SR leukemia) was 5.58 µM. It also gave a TGI (SW-620 colon) of 20.3 µM, a TGI (T-47D breast) of 40.1 µM and a TGI (TK-10 renal) of 32.4 µM. It also gave a TGI (U251 CNS) of 27.7 µM, a TGI (UACC-257 melanoma) of 13.8 µM and a TGI (UACC-62 melanoma) of 33.7 µM. The TGI (UO-31 renal) was 23.7 µM.

`CCCC(=O)NC1=C(NCC)C(=O)c2ccccc2C1=O` gave a TGI (786-0 renal) of over 100 µM, a TGI (A549 NSCLC) of over 100 µM and a TGI (ACHN renal) of over 100 µM. For the same molecule, the TGI (BT-549 breast) was over 100 µM, the TGI (CCRF-CEM leukemia) was over 100 µM and the TGI (COLO 205 colon) was over 100 µM. For the same molecule, the TGI (DU-145 prostate) was over 100 µM, the TGI (HCC-2998 colon) was over 100 µM and the TGI (HCT-116 colon) was over 100 µM. For the same molecule, the TGI (HCT-15 colon) was over 100 µM, the TGI (HL-60(TB) leukemia) was over 100 µM and the TGI (HOP-62 NSCLC) was over 100 µM. For the same molecule, the TGI (HOP-92 NSCLC) was over 100 µM, the TGI (HS 578T breast) was over 100 µM and the TGI (HT29 colon) was over 100 µM. The TGI (IGROV1 ovarian) was over 100 µM, the TGI (K-562 leukemia) was over 100 µM and the TGI (KM12 colon) was over 100 µM. For the same molecule, the TGI (MALME-3M melanoma) was over 100 µM, the TGI (MCF7 breast) was over 100 µM and the TGI (MDA-MB-231 breast) was over 100 µM. It also gave a TGI (MDA-MB-435) of 78.1 µM, a TGI (MDA-N) of 63.2 µM and a TGI (MOLT-4 leukemia) of over 100 µM. The TGI (NCI-H226 lung) was over 100 µM, the TGI (NCI-H23 lung) was over 100 µM and the TGI (NCI-H460 lung) was over 100 µM. The TGI (NCI-H522 lung) was over 100 µM, the TGI (OVCAR-3 ovarian) was over 100 µM and the TGI (OVCAR-4 ovarian) was over 100 µM. For the same molecule, the TGI (OVCAR-5 ovarian) was over 100 µM, the TGI (PC-3 prostate) was over 100 µM and the TGI (RPMI-8226 leukemia) was over 100 µM. For the same molecule, the TGI (RXF 393 renal) was over 100 µM, the TGI (SF-268 CNS) was over 100 µM and the TGI (SF-295 CNS) was over 100 µM. The TGI (SF-539 CNS) was over 100 µM, the TGI (SK-MEL-28 melanoma) was over 100 µM and the TGI (SK-MEL-5 melanoma) was over 100 µM. The TGI (SK-OV-3 ovarian) was over 100 µM, the TGI (SN12C renal) was over 100 µM and the TGI (SNB-19 CNS) was over 100 µM. The TGI (SNB-75 CNS) was over 100 µM, the TGI (SR leukemia) was over 100 µM and the TGI (SW-620 colon) was over 100 µM. The TGI (T-47D breast) was over 100 µM, the TGI (TK-10 renal) was over 100 µM and the TGI (U251 CNS) was over 100 µM. The TGI (UACC-257 melanoma) was over 100 µM and the TGI (UACC-62 melanoma) was over 100 µM.
